Reference: ChEMBL document CHEMBL4177646, “Discovery of novel nitroimidazole enols as Pseudomonas aeruginosa DNA cleavage agents” (Bioorg Med Chem, 2017)
Values after ≈ are worked out from the molar mass of the structure shown.

Experiments:
Type in all cases: functional
[1] = tested on: Candida albicans; test: Antifungal activity against drug-resistant Candida albicans after 24 hrs by micro broth dilution method
[2] = tested on: Staphylococcus aureus; test: Antibacterial activity against drug-resistant Staphylococcus aureus after 24 hrs by micro broth dilution method
[3] = tested on: Escherichia coli; test: Antibacterial activity against drug-resistant Escherichia coli after 24 hrs by micro broth dilution method
[4] = tested on: Escherichia coli; test: Antibacterial activity against Escherichia coli ATCC 25922 after 24 hrs by micro broth dilution method; settings: ATCC 25922, 24 h
[5] = tested on: Pseudomonas aeruginosa; test: Antibacterial activity against Pseudomonas aeruginosa ATCC 27853 after 24 hrs by micro broth dilution method; settings: ATCC 27853, 24 h
[6] = tested on: Staphylococcus aureus; test: Antibacterial activity against Staphylococcus aureus ATCC 29213 after 24 hrs by micro broth dilution method; settings: ATCC 29213, 24 h
[7] = tested on: Pseudomonas aeruginosa; test: Antibacterial activity against drug-resistant Pseudomonas aeruginosa after 24 hrs by micro broth dilution method
[8] = tested on: Staphylococcus aureus; test: Antibacterial activity against Staphylococcus aureus ATCC 25923 after 24 hrs by micro broth dilution method; settings: ATCC 25923, 24 h
[9] = tested on: Candida albicans; test: Antifungal activity against Candida albicans ATCC 90023 after 24 hrs by micro broth dilution method; settings: ATCC 90023, 24 h
[10] = tested on: Staphylococcus aureus; test: Antibacterial activity against methicillin-resistant Staphylococcus aureus N315 after 24 hrs by micro broth dilution method; settings: N315, 24 h
[11] = tested on: Candida tropicalis; test: Antifungal activity against Candida tropicalis after 24 hrs by micro broth dilution method
[12] = tested on: Pseudomonas aeruginosa; test: Potency index, ratio of norfloxacin MIC to compound MIC for Pseudomonas aeruginosa ATCC 27853
[13] = tested on: Pseudomonas aeruginosa; test: Potency index, ratio of metronidazole MIC to compound MIC for Pseudomonas aeruginosa ATCC 27853

SMILES	MIC [1] [mg/L]	MIC [2] [µM]	MIC [3] [µM]	MIC [4] [µM]	MIC [5] [µM]	MIC [6] [µM]	MIC [7] [µM]	MIC [8] [µM]	MIC [9] [mg/L]	MIC [10] [µM]	MIC [11] [mg/L]	Ratio [12]	Ratio [13]
Cc1ncc([N+](=O)[O-])n1/C(=C/c1ccccc1)C(C)O (stereo not drawn)	512 (≈ 1870 µM)	1870 (≈ 511 µg/mL)	1870 (≈ 511 µg/mL)	1870 (≈ 511 µg/mL)	230 (≈ 62.9 µg/mL)	1870 (≈ 511 µg/mL)	940 (≈ 257 µg/mL)	1870 (≈ 511 µg/mL)	16 (≈ 58.5 µM)	1870 (≈ 511 µg/mL)	128 (≈ 468 µM)	4 - 16	–
CCn1c2ccccc2c2cc(/C=C(\C(C)O)n3c([N+](=O)[O-])cnc3C)ccc21 (stereo not drawn)	512 (≈ 1310 µM)	1310 (≈ 511 µg/mL)	1310 (≈ 511 µg/mL)	1310 (≈ 511 µg/mL)	1310 (≈ 511 µg/mL)	660 (≈ 258 µg/mL)	1310 (≈ 511 µg/mL)	1310 (≈ 511 µg/mL)	512 (≈ 1310 µM)	1310 (≈ 511 µg/mL)	256 (≈ 656 µM)	–	–
CCn1c2ccccc2c2cc(/C=C(\C(C)=O)n3c([N+](=O)[O-])cnc3C)ccc21	512 (≈ 1320 µM)	820 (≈ 319 µg/mL)	1640 (≈ 637 µg/mL)	1640 (≈ 637 µg/mL)	1640 (≈ 637 µg/mL)	1640 (≈ 637 µg/mL)	1640 (≈ 637 µg/mL)	820 (≈ 319 µg/mL)	256 (≈ 659 µM)	1640 (≈ 637 µg/mL)	256 (≈ 659 µM)	–	–
CC(=O)/C(=C\c1c[nH]c2ccccc12)n1c([N+](=O)[O-])cnc1C	512 (≈ 1650 µM)	1650 (≈ 512 µg/mL)	1650 (≈ 512 µg/mL)	420 (≈ 130 µg/mL)	420 (≈ 130 µg/mL)	830 (≈ 258 µg/mL)	420 (≈ 130 µg/mL)	830 (≈ 258 µg/mL)	512 (≈ 1650 µM)	830 (≈ 258 µg/mL)	512 (≈ 1650 µM)	4 - 16	–
Cc1ncc([N+](=O)[O-])n1CCO [METRONIDAZOLE]	–	2970 (≈ 508 µg/mL)	2970 (≈ 508 µg/mL)	2970 (≈ 508 µg/mL)	2970 (≈ 508 µg/mL)	2970 (≈ 508 µg/mL)	2970 (≈ 508 µg/mL)	2970 (≈ 508 µg/mL)	–	2970 (≈ 508 µg/mL)	–	–	–
CC(=O)/C(=C\c1ccc(C)cc1)n1c([N+](=O)[O-])cnc1C	512 (≈ 1790 µM)	220 (≈ 62.8 µg/mL)	900 (≈ 257 µg/mL)	56 (≈ 16 µg/mL)	450 (≈ 128 µg/mL)	450 (≈ 128 µg/mL)	1790 (≈ 511 µg/mL)	900 (≈ 257 µg/mL)	256 (≈ 897 µM)	1790 (≈ 511 µg/mL)	256 (≈ 897 µM)	4 - 16	–
Cc1ncc([N+](=O)[O-])n1/C(=C/c1ccc(C#N)cc1)C(C)O (stereo not drawn)	512 (≈ 1720 µM)	1710 (≈ 510 µg/mL)	1710 (≈ 510 µg/mL)	860 (≈ 257 µg/mL)	860 (≈ 257 µg/mL)	1710 (≈ 510 µg/mL)	1710 (≈ 510 µg/mL)	1710 (≈ 510 µg/mL)	64 (≈ 215 µM)	1710 (≈ 510 µg/mL)	512 (≈ 1720 µM)	–	–
CC(=O)/C(=C\c1ccc(F)cc1)n1c([N+](=O)[O-])cnc1C	256 (≈ 885 µM)	1760 (≈ 509 µg/mL)	1760 (≈ 509 µg/mL)	110 (≈ 31.8 µg/mL)	440 (≈ 127 µg/mL)	1760 (≈ 509 µg/mL)	880 (≈ 255 µg/mL)	880 (≈ 255 µg/mL)	128 (≈ 442 µM)	1760 (≈ 509 µg/mL)	256 (≈ 885 µM)	4 - 16	–
Cc1ncc([N+](=O)[O-])n1/C(=C/c1ccc(Cl)cc1)C(C)O (stereo not drawn)	512 (≈ 1660 µM)	830 (≈ 255 µg/mL)	1670 (≈ 514 µg/mL)	1670 (≈ 514 µg/mL)	410 (≈ 126 µg/mL)	830 (≈ 255 µg/mL)	1670 (≈ 514 µg/mL)	1670 (≈ 514 µg/mL)	16 (≈ 52 µM)	1670 (≈ 514 µg/mL)	256 (≈ 832 µM)	–	–
Cc1ncc([N+](=O)[O-])n1/C(=C/c1ccc(Cl)cc1Cl)C(C)O (stereo not drawn)	512 (≈ 1500 µM)	1500 (≈ 513 µg/mL)	1500 (≈ 513 µg/mL)	1500 (≈ 513 µg/mL)	750 (≈ 257 µg/mL)	1500 (≈ 513 µg/mL)	1500 (≈ 513 µg/mL)	1500 (≈ 513 µg/mL)	64 (≈ 187 µM)	1500 (≈ 513 µg/mL)	256 (≈ 748 µM)	–	–
CC(=O)/C(=C\c1ccc(C#N)cc1)n1c([N+](=O)[O-])cnc1C	256 (≈ 864 µM)	1720 (≈ 510 µg/mL)	1720 (≈ 510 µg/mL)	860 (≈ 255 µg/mL)	860 (≈ 255 µg/mL)	860 (≈ 255 µg/mL)	430 (≈ 127 µg/mL)	860 (≈ 255 µg/mL)	128 (≈ 432 µM)	1720 (≈ 510 µg/mL)	256 (≈ 864 µM)	–	–
CC(=O)/C(=C\c1ccc(Cl)cc1)n1c([N+](=O)[O-])cnc1C	512 (≈ 1670 µM)	210 (≈ 64.2 µg/mL)	1640 (≈ 501 µg/mL)	410 (≈ 125 µg/mL)	820 (≈ 251 µg/mL)	1640 (≈ 501 µg/mL)	1640 (≈ 501 µg/mL)	1640 (≈ 501 µg/mL)	128 (≈ 419 µM)	1640 (≈ 501 µg/mL)	128 (≈ 419 µM)	–	–
Cc1ncc([N+](=O)[O-])n1/C(=C/c1ccc(N(C)C)cc1)C(C)O (stereo not drawn)	512 (≈ 1620 µM)	1620 (≈ 513 µg/mL)	1620 (≈ 513 µg/mL)	810 (≈ 256 µg/mL)	400 (≈ 127 µg/mL)	1620 (≈ 513 µg/mL)	1620 (≈ 513 µg/mL)	810 (≈ 256 µg/mL)	64 (≈ 202 µM)	1620 (≈ 513 µg/mL)	128 (≈ 405 µM)	4	7
CC(=O)/C(=C\c1ccc(N(C)C)cc1)n1c([N+](=O)[O-])cnc1C	512 (≈ 1630 µM)	1620 (≈ 509 µg/mL)	810 (≈ 255 µg/mL)	810 (≈ 255 µg/mL)	410 (≈ 129 µg/mL)	410 (≈ 129 µg/mL)	1620 (≈ 509 µg/mL)	1620 (≈ 509 µg/mL)	128 (≈ 407 µM)	1620 (≈ 509 µg/mL)	256 (≈ 814 µM)	4 - 16	–
CC(=O)/C(=C\c1ccc(Cl)cc1Cl)n1c([N+](=O)[O-])cnc1C	512 (≈ 1510 µM)	1650 (≈ 561 µg/mL)	1650 (≈ 561 µg/mL)	1650 (≈ 561 µg/mL)	830 (≈ 282 µg/mL)	1650 (≈ 561 µg/mL)	1650 (≈ 561 µg/mL)	830 (≈ 282 µg/mL)	128 (≈ 376 µM)	1650 (≈ 561 µg/mL)	512 (≈ 1510 µM)	–	–
OC(Cn1cncn1)(Cn1cncn1)c1ccc(F)cc1F [FLUCONAZOLE]	8 (≈ 26.1 µM)	–	–	–	–	–	–	–	8 (≈ 26.1 µM)	–	256 (≈ 836 µM)	–	–
CC(=O)/C(=C\c1ccccc1Cl)n1c([N+](=O)[O-])cnc1C	512 (≈ 1670 µM)	1640 (≈ 501 µg/mL)	1640 (≈ 501 µg/mL)	410 (≈ 125 µg/mL)	830 (≈ 254 µg/mL)	820 (≈ 251 µg/mL)	830 (≈ 254 µg/mL)	820 (≈ 251 µg/mL)	32 (≈ 105 µM)	1640 (≈ 501 µg/mL)	64 (≈ 209 µM)	–	–
Cc1ncc([N+](=O)[O-])n1/C(=C/c1c[nH]c2ccccc12)C(C)O (stereo not drawn)	512 (≈ 1640 µM)	1630 (≈ 509 µg/mL)	810 (≈ 253 µg/mL)	410 (≈ 128 µg/mL)	410 (≈ 128 µg/mL)	810 (≈ 253 µg/mL)	810 (≈ 253 µg/mL)	410 (≈ 128 µg/mL)	128 (≈ 410 µM)	810 (≈ 253 µg/mL)	256 (≈ 820 µM)	4 - 16	–
CC(=O)/C(=C\c1ccccc1)n1c([N+](=O)[O-])cnc1C	256 (≈ 944 µM)	940 (≈ 255 µg/mL)	940 (≈ 255 µg/mL)	230 (≈ 62.4 µg/mL)	470 (≈ 127 µg/mL)	940 (≈ 255 µg/mL)	470 (≈ 127 µg/mL)	470 (≈ 127 µg/mL)	32 (≈ 118 µM)	1880 (≈ 510 µg/mL)	128 (≈ 472 µM)	4 - 16	–
Cc1ccc(/C=C(\C(C)O)n2c([N+](=O)[O-])cnc2C)cc1 (stereo not drawn)	512 (≈ 1780 µM)	1780 (≈ 511 µg/mL)	1780 (≈ 511 µg/mL)	440 (≈ 126 µg/mL)	440 (≈ 126 µg/mL)	1780 (≈ 511 µg/mL)	890 (≈ 256 µg/mL)	890 (≈ 256 µg/mL)	64 (≈ 223 µM)	1780 (≈ 511 µg/mL)	128 (≈ 445 µM)	4	7
Cc1ncc([N+](=O)[O-])n1/C(=C/c1ccccc1Cl)C(C)O (stereo not drawn)	512 (≈ 1660 µM)	1670 (≈ 514 µg/mL)	1670 (≈ 514 µg/mL)	210 (≈ 64.6 µg/mL)	830 (≈ 255 µg/mL)	1670 (≈ 514 µg/mL)	1670 (≈ 514 µg/mL)	1670 (≈ 514 µg/mL)	32 (≈ 104 µM)	1670 (≈ 514 µg/mL)	512 (≈ 1660 µM)	–	–
COc1cc(/C=C(\C(C)=O)n2c([N+](=O)[O-])cnc2C)ccc1O	256 (≈ 807 µM)	1600 (≈ 508 µg/mL)	800 (≈ 254 µg/mL)	100 (≈ 31.7 µg/mL)	400 (≈ 127 µg/mL)	1600 (≈ 508 µg/mL)	800 (≈ 254 µg/mL)	400 (≈ 127 µg/mL)	128 (≈ 403 µM)	1600 (≈ 508 µg/mL)	256 (≈ 807 µM)	4 - 16	–
Cc1ncc([N+](=O)[O-])n1/C(=C/c1ccc(F)cc1)C(C)O (stereo not drawn)	512 (≈ 1760 µM)	1710 (≈ 498 µg/mL)	1710 (≈ 498 µg/mL)	440 (≈ 128 µg/mL)	110 (≈ 32 µg/mL)	1710 (≈ 498 µg/mL)	880 (≈ 256 µg/mL)	880 (≈ 256 µg/mL)	64 (≈ 220 µM)	1760 (≈ 513 µg/mL)	128 (≈ 439 µM)	4 - 16	–
CCn1cc(C(=O)O)c(=O)c2cc(F)c(N3CCNCC3)cc21 [NORFLOXACIN]	–	200 (≈ 63.9 µg/mL)	1600 (≈ 511 µg/mL)	50 (≈ 16 µg/mL)	1600 (≈ 511 µg/mL)	25 (≈ 7.98 µg/mL)	1600 (≈ 511 µg/mL)	100 (≈ 31.9 µg/mL)	–	1600 (≈ 511 µg/mL)	–	–	–
